Source: patent US20130108653A1, “BIVALENT MOLECULES FOR HIV ENTRY INHIBITION” (priority 2009, published 2013)

System: JRCSF (CCR5-tropic)
Experiment: Luciferase assay / single round infection in TZM-bl cells, JRCSF
Format: cell-based, HIV
Details: TZM-bl luciferase indicator cells; FIG. 20
Description: FIGS. 10-14. Inhibitory effect of the bivalent molecules of the present invention on HIV spreading. The experiment is based on the activation of the luciferase gene upon infection of TZM-bl cells. X-axis depict 3 different dilutions of a virus stock (HXB2 (CRCX4-trop, virus 89.6 (Dual-trop) or JRCSF (CCR5-trop)) with unknown titer (1×, 5× and 25×). Y-axis depicts the amount of luminescence. Lower luminescence corresponds to greater inhibitory effect of the bivalent molecules of the present invention. (See also Example 4 elsewhere herein).
JRCSF is incubated in the presence of mol 500 in a concentration of 0.2 micrograms/ml and 0.1 micrograms/ml. JRCSF incubated without mol 500 is shown as a control. […]
The experiment is based on the activation of the luciferase gene upon infection of TZM-bl cells with 3 different virus strains (HXB2 (CRCX4-tropic), virus 89.6 (Dual-tropic) or JRCSF (CCR5-tropic)). The more luminescence measured, the greater activation of the luciferase gene has occurred, and the more inefficient the inhibition of infection has been by the molecule of the present invention […]
90 μl of Luciferin (britelite plus Perkin Elmer cat no: 6016761) is added to each well in order to start the chemo-luminescence reaction.
150 μl of the liquid is removed from each well and the luminescence is measured in a FLUO star Omega (BMG LABYECH Gmbh). […]

enfuvirtide
neutralization of JR-CSF, single round infection, in words: very minor effects
